# Assay results taken from patent publication US20210085640A1, “ACYLATED CATECHIN POLYPHENOLS AND METHODS OF THEIR USE FOR THE TREATMENT OF CANCER” (Flagship Pioneering Innovations V, Inc., priority 2018, published 2021).
# Assays:
# Format in all cases: cell-based
# [1] = test system: T24 bladder cancer cells; assay: Cancer cell survival (CellTiter-Glo), T24; details: Homo sapiens, 72 h, read-out: Cell survival at given concentration
# Procedure, shortened: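 Viability by CellTiter-Glo after 72 h compound treatment of T24 bladder cancer cells (4×10^3/well, plated the night before), nine concentration levels in triplicate. Percent survival normalised to untreated cells minus medium background, from which IC50 was determined.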
# [2] = test system: Daudi lymphoma cancer cells; assay: Cancer cell survival (CellTiter-Glo), Daudi; details: Homo sapiens, 72 h, read-out: Cell survival at given concentration
# Procedure, shortened: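 Daudi cells (4×10^3/well) were exposed for 72 h at 37 °C to nine concentrations of compound, added as 10× solutions spanning 1 μM–10 mM (fatty acids) or 100 nM–1 mM (others). CellTiter-Glo luminescence gave % survival versus untreated, medium-blank corrected; IC50 derived.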
# [3] = test system: MCF7 breast cancer cells; assay: Cancer cell survival (CellTiter-Glo), MCF7; details: Homo sapiens, 72 h, read-out: Cell survival at given concentration
# Procedure, shortened: (§1)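 CellTiter-Glo luminescence after 72 h compound exposure (37 C, 5% CO2; nine concentration levels, triplicate) of overnight-plated cells at 4×10^3 per well. IC50 calculated from survival % relative to untreated cells after medium-background subtraction.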
# [4] = test system: HCT 116 colorectal cancer cells; assay: Cancer cell survival (CellTiter-Glo), HCT 116; details: Homo sapiens, HCT 116 cells, 72 h, read-out: Cell survival at given concentration
# Procedure, shortened: as §1
# [5] = test system: A549 lung cancer cells; assay: Cancer cell survival (CellTiter-Glo), A549; details: Homo sapiens, 72 h, read-out: Cell survival at given concentration
# Procedure, shortened: as §1
# [6] = test system: PC-3 prostate cancer cells; assay: Cancer cell survival (CellTiter-Glo), PC-3; details: Homo sapiens, PC-3 cells, 72 h, read-out: Cell survival at given concentration
# Procedure, shortened: as §1
# [7] = test system: A-431 skin cancer cells; assay: Cancer cell survival (CellTiter-Glo), A-431; details: Homo sapiens, A-431 cells, 72 h, read-out: Cell survival at given concentration
# Procedure, shortened: as §1
# [8] = test system: AGS stomach cancer cells; assay: Cancer cell survival (CellTiter-Glo), AGS; details: 72 h
# Procedure, shortened: as §1
# [9] = Human Regulatory T Cell Differentiation Assay; details: human, primary naïve CD4+ T cells isolated from PBMCs, read-out: Cell viability % DMSO
# Description: Peripheral blood mononuclear cells (PBMCs) from whole blood donated by health volunteers were separated by Ficoll-Paque gradient centrifugation and naïve CD4^+ T cells were subsequently isolated using magnet beads (EasySep™ Human Naïve CD4^+ T Cell Isolation Kit, Cambridge, Mass.). For regulatory T cell (Treg) differentiation assay, naïve CD4^+ T cells were cultured (1-10×10^4 cells) in CTS OpTmizer medium for 6 days and stimulated with 5 ng/ml TGF-β, 100 U/ml IL-2, and ImmunoCult™ Human […] T Cell Activator; Stemcell #10990) with/without Compounds. Cell viability was determined using a viability dye (eBioscience Fixable Viability Dye eFluor 780: ThermoFisher 65-0865-14) at 1:500 dilution. The cells were gated for Treg, defined as Live, CD11c^−, CD14^−, CD19^−, CD8^−, CD4^+, CD3^+, CD25^+, FOXP3^+. Percent (%) Tregs were calculated as percentage of CD4^+, CD25^+, FOXP3^+ cells over total CD4^+ T cells. Statistical analysis was performed with GraphPad Prism Software Using One-Way ANOVA.
smiles,measurement,setting,value
O=C[C@H](O)[C@@H](O)[C@@H](O)CO [L-arabinose],viability at 0.101 µM,"[1]; T-24, 101 nM",100%
same,viability at 0.318 µM,"[1]; T-24, 318 nM",103%
same,viability at 1 µM,"[1]; T-24, 1 μM",100%
same,viability at 3 µM,"[1]; T-24, 3 μM",103%
same,viability at 10 µM,"[1]; T-24, 10 μM",102%
same,viability at 32 µM,"[1]; T-24, 32 μM",105%
same,viability at 100 µM,"[1]; T-24, 100 μM",101%
same,viability at 316 µM,"[1]; T-24, 316 μM",101%
same,viability at 1000 µM,"[1]; T-24, 1000 μM",104%
same,viability at 0.101 µM,[2]; 101 nM,100%
same,viability at 0.318 µM,[2]; 318 nM,100%
same,viability at 1 µM,[2]; 1 μM,100%
same,viability at 3 µM,[2]; 3 μM,99%
same,viability at 10 µM,[2]; 10 μM,102%
same,viability at 32 µM,[2]; 32 μM,102%
same,viability at 100 µM,[2]; 100 μM,103%
same,viability at 316 µM,[2]; 316 μM,102%
same,viability at 1000 µM,[2]; 1000 μM,102%
same,viability at 0.101 µM,[3]; 101 nM,99%
same,viability at 0.318 µM,[3]; 318 nM,101%
same,viability at 1 µM,[3]; 1 μM,98%
same,viability at 3 µM,[3]; 3 μM,101%
same,viability at 10 µM,[3]; 10 μM,99%
same,viability at 32 µM,[3]; 32 μM,101%
same,viability at 100 µM,[3]; 100 μM,99%
same,viability at 316 µM,[3]; 316 μM,98%
same,viability at 1000 µM,[3]; 1000 μM,98%
same,viability at 0.101 µM,[4]; 101 nM,101%
same,viability at 0.318 µM,[4]; 318 nM,101%
same,viability at 1 µM,[4]; 1 μM,101%
same,viability at 3 µM,[4]; 3 μM,103%
same,viability at 10 µM,[4]; 10 μM,103%
same,viability at 32 µM,[4]; 32 μM,104%
same,viability at 100 µM,[4]; 100 μM,104%
same,viability at 316 µM,[4]; 316 μM,102%
same,viability at 1000 µM,[4]; 1000 μM,99%
same,viability at 0.101 µM,[5]; 101 nM,101%
same,viability at 0.318 µM,[5]; 318 nM,103%
same,viability at 1 µM,[5]; 1 μM,104%
same,viability at 3 µM,[5]; 3 μM,102%
same,viability at 10 µM,[5]; 10 μM,103%
same,viability at 32 µM,[5]; 32 μM,103%
same,viability at 100 µM,[5]; 100 μM,102%
same,viability at 316 µM,[5]; 316 μM,102%
same,viability at 1000 µM,[5]; 1000 μM,104%
same,viability at 0.101 µM,[6]; 101 nM,103%
same,viability at 0.318 µM,[6]; 318 nM,100%
same,viability at 1 µM,[6]; 1 μM,100%
same,viability at 3 µM,[6]; 3 μM,101%
same,viability at 10 µM,[6]; 10 μM,103%
same,viability at 32 µM,[6]; 32 μM,101%
same,viability at 100 µM,[6]; 100 μM,100%
same,viability at 316 µM,[6]; 316 μM,101%
same,viability at 1000 µM,[6]; 1000 μM,100%
same,viability at 0.101 µM,[7]; 101 nM,103%
same,viability at 0.318 µM,[7]; 318 nM,102%
same,viability at 1 µM,[7]; 1 μM,102%
same,viability at 3 µM,[7]; 3 μM,103%
same,viability at 10 µM,[7]; 10 μM,103%
same,viability at 32 µM,[7]; 32 μM,105%
same,viability at 100 µM,[7]; 100 μM,105%
same,viability at 316 µM,[7]; 316 μM,105%
same,viability at 1000 µM,[7]; 1000 μM,102%
same,viability at 0.101 µM,"[8]; 101 nM, read-out: Cell survival at given concentration",100%
same,viability at 0.318 µM,"[8]; 318 nM, read-out: Cell survival at given concentration",102%
same,viability at 1 µM,"[8]; 1 μM, Table 10.1, read-out: Cell survival at given concentration",101%
same,viability at 3 µM,"[8]; 3 μM, Table 10.1, read-out: Cell survival at given concentration",102%
same,viability at 10 µM,"[8]; 10 μM, Table 10.1, read-out: Cell survival at given concentration",102%
same,viability at 32 µM,"[8]; 32 μM, Table 10.1, read-out: Cell survival at given concentration",104%
same,viability at 100 µM,"[8]; 100 μM, Table 10.1, read-out: Cell survival at given concentration",105%
same,viability at 316 µM,"[8]; 316 μM, read-out: Cell survival at given concentration",102%
same,viability at 1000 µM,"[8]; 1000 μM, read-out: Cell survival at given concentration",101%
same,"viability at 6 days, 0.5 mM",[9]; 0.5 mM,90 to 110%
same,"viability at 6 days, 1 mM",[9]; 1 mM,90 to 110%
